# Measured values from patent US20250257069A1, “JAK INHIBITOR ANALOGS, FORMULATIONS, AND USES THEREOF” (THE REGENTS OF THE UNIVERSITY OF MICHIGAN, priority 2022, published 2025).
# Like-named read-outs stand apart in the source and are kept apart here.
# How the values were obtained:
# [1] = following a single oral dose; cited from earlier work
# [2] = tested on: HEL 92.1.7 cells; assay: Anti-proliferative assay in HEL cells (CellTiter 96 Aqueous); assay type: cell-based, Human; details: 3 days
# Experimental: (§1) Cell Culture and anti-proliferative assay. […] Cells were incubated at 37° C. in a humidified atmosphere of 5% CO2. Cells were seeded into 96-well culture plates at the density of approximately 8000 cells per well and treated with various concentrations of compounds for 3 days in final volumes of 200 μL. Upon end point, cells were treated using CellTiter 96 Aqueous Assay Reagents (Promega Corporation, Madison, USA) according to the provider's instruction. Briefly, MITS and PMS solution were thawed and mixed (20:1, v/v) before use and pipet appropriate amount of the mixed solution into each well of the 96 well assay plates. The plates were incubated for 1-4 hours at 37° C. in a humidified atmosphere of 5% CO2. The absorbance at 490 nm was recorded using CYTATION 5 imaging reader (BioTek, VT, USA). IC50 values were calculated using percentage of growth versus untreated control.
# [3] = tested on: SET-2 cells; assay: Anti-proliferative assay in SET-2 cells (CellTiter 96 Aqueous); assay type: cell-based, Human; details: 3 days
# Experimental: as §1
# [4] = target: JAK3 (Homo sapiens (Human), UniProt P52333); assay: Kinase-Glo Max JAK3 kinase assay (BPS Bioscience kit); assay type: biochemical; details: purified enzyme, 0.01-10,000 nM
# [5] = Pharmacokinetics in mice after oral MMT3-72 (LC-MS/MS of plasma, GI tissues, GI content); assay type: in vivo, C57BL/6 female mice
# Experimental: LC-MS analysis of MMT3-72and MMT3-72-M2 in biological samples: MMT3-72 and MMT3-72-M2 concentrations in plasma (ng/mil) and tissues (ng/g) were determined by the LC-MS/MS method that was developed and validated for this study. The HPLC method was conducted on a Shimadzu LC-20AD HPLC system (Kyoto, Japan), and chromatographic separation was achieved using a Waters XBridage reverse phase C18 column (5 cm×2.1 mm I.D., packed with 3.5 μm). The flow rate of gradient elution was 0.4 ml/min with mobile phase A (0.1% formic acid in purified deionized water) and mobile phase B (0.1% formic acid in acetonitrile). An AB Sciex QTrap 4500 mass spectrometer (AB Sciex, Framingham, USA) in the positive-ion multiple reaction monitoring (MRM) mode was used for detection. Protonated molecular ions and the respective ion products were monitored at the transitions of m/z 811.3>737.4 for MMT3-72 and 472.3>416.0 for the MMT3-72-M2. Data was processed with software Analyst (version 1.6).
# Pharmacokinetics in mice. Briefly, C57BL/6 female mice were orally dosed with 10 mg/kg MMT3-72. At 0.5, 2, 4, 12, 24 h, mice were sacrificed, and blood samples were collected by drawing directly from the heart Intestinal tissue samples were collected and homogenized in PBS to 10% homogenate. The contents of small and large intestine were collected and homogenized in PBS. Afterwards, concentrations of MMT3-72, MMT3-72-M2,5-ASA in the plasma, intestinal tissues, and intestinal content were determined by liquid chromatography-tandem mass spectrometry (LC-MS/MS) analysis using method described above.
# [6] = target: JAK2 (Homo sapiens (Human), UniProt O60674); assay: Kinase-Glo Max JAK2 kinase assay (BPS Bioscience kit); assay type: biochemical; details: purified enzyme, 0.01-10,000 nM
# [7] = target: TYK2 (Homo sapiens (Human), UniProt P29597); assay: Kinase-Glo Max TYK2 kinase assay (BPS Bioscience kit); assay type: biochemical; details: purified enzyme, 0.01-10,000 nM
# Experimental: (§2) In vitro activity to inhibit JAK enzymes: JAK1, JAK2, JAK3, TYK2 assay kits were obtained from BPS Bioscience (San Diego, CA, USA). The assays were conducted according to manufacturer's protocols in 96-well microplates. Briefly, master mixtures (25 μL per well) were prepared for JAK1 and TYK2 assays (6 μL 5× kinase assay buffer+1 μL ATP (500 μM)+5 μL×10 IRS1-tide+13 μL distilled water) or for JAK2 and JAK3 assays (6 μl 5× kinase assay buffer+1 μl ATP (500 μM)+1 μl PTK substrate Poly(Glu:Tyr 4:1) (10 mg/mL)+17 μL distilled water), respectively. […] The reaction mixtures were incubated at 30° C. for 40 minutes. Finally, 50 μL of Kinase-Glo Max reagent (Promega, Madison, WL USA) was added to each well and the reactions were performed in darkness for 15 minutes at room temperature. The luminescence of the reaction mixture was read on a Synergy 2 microplate reader (Biotek).
# [8] = In-vivo metabolite identification in mouse plasma, colon and feces; details: 6 h after oral 10 mg/kg MMT3-72
# Experimental: Activation of MMT73-72 and Metabolite identification: In-vivo metabolite identification was conducted using mouse plasma, colon and feces samples that collected at 6 h after oral administration of MMT3-72 (10 mg/kg), Liquid chromatography tandem mass spectrometry was employed to separate and identify the possible metabolites. The LC-MS/MS method consisted of a Shimadzu LC-20AD HPLC system (Kyoto, Japan). Chromatographic separation of MMT3-72 and its metabolites was achieved using a Waters XBridage reverse phase C18 column (15 cm×2.1 mm I.D., packed with […]). A high resolution AB Sciex X500R QTOF mass spectrometer (AB Sciex, Farmingham, USA) in the positive-ion Information Dependent Acquisition (IDA) mode was used for confirmation of accurate molecular weight. The mass range was recorded from m/z 100 to 1000 Da. The collision energy was set to 50 V for TOF MSMS. Data was collected with software SCIEX OS, and then processed with software Metabolite Pilot 2.0 (AB Sciex, Farmingham, USA).
# [9] = tested on: DSS-induced colitis; assay: H&E staining of colon tissues in DSS-induced colitis model; assay type: in vivo, mice; details: 5, 10 mg/kg
# Experimental: H&E Staining of Colon tissues: After dissecting and transecting the colon, a feeding needle and 5 ml syringe were used to intubate and flush the colon with ice-cold PBS until the stool was flushed out. Scissors were used to incise longitudinally from distal to proximal end of the colon and the colon tissue could then be expanded as a flat sheet. The edge of the distal colon was grasped using a pair of forceps and the colon tissue was rotated into a swiss roll. The roll was firmly grasped and transected using a 27 G ½ needle. […] The Swiss roll was then paraffin-embedded, sectioned, mounted, and stained with H&E to determine the extent of damage to the colon from the distal (inside end) to the proximal (outside end).
# [10] = target: JAK1 (Homo sapiens (Human), UniProt P23458); assay: Kinase-Glo Max JAK1 kinase assay (BPS Bioscience kit); assay type: biochemical; details: purified enzyme, 0.01-10,000 nM
# Experimental: as §2
# [11] = tested on: DSS-induced colitis; assay: DSS-induced colitis in mice; assay type: in vivo, C57BL/6 female mice; details: oral; for improvement of DAI score or disease severity (in words): 1 mg/kg; for mice that developed moderate colitis / mice that developed severe colitis / mice that developed severe colitis with gross bleeding: day 5, n=10
# Experimental: In vivo efficacy of MMT3-72 in treatment of DSS-induced colitis in mice: C57BL/6 female mice 6-8 weeks purchased from Charles River Laboratories and were randomly divided into different treatment groups. Acute colitis was induced by administering 3% DSS (MP Biomedicals, CA, USA) in distilled water continuously for 5 days and the control group received pure water (Snider, et al., Methods Mol Biol 2016, 1438, 245-254). […] Drugs were administered every other day orally by gavage in volume of 0.1 mL/10 g body weight. During the model establishment, body weight, stool consistency and gross blood in feces were monitored and recorded daily. After 5 days, mice were sacrificed and blood was collected. Serum was obtained by centrifugation and stored at −80° C. for further immune assay. Colon was excised and the length was measured.
# To evaluate the efficacy of MMT3-72 in the treatment of UC in vivo, a colitis model was established in mice using dextran sodium sulfate (DSS). DSS in drinking water could trigger colitis in mice. The DSS-induced colitis model is widely used because of its relatively easy administration and high similarity with human UC. In this study, mice treated with 3% DSS water developed symptoms of colitis such as bloody stools and diarrhea on day 5. Disease activity index (DAI) was monitored for the severeness of disease in mice: Normal stool consistency with negative hemoccult: score 0; Soft stools with positive hemoccult: score 1; Very soft stools with traces of blood: score 2; Watery stools with visible rectal bleeding: score 3. […]. […].
# Chain of JAK1 (P23458 whole entry): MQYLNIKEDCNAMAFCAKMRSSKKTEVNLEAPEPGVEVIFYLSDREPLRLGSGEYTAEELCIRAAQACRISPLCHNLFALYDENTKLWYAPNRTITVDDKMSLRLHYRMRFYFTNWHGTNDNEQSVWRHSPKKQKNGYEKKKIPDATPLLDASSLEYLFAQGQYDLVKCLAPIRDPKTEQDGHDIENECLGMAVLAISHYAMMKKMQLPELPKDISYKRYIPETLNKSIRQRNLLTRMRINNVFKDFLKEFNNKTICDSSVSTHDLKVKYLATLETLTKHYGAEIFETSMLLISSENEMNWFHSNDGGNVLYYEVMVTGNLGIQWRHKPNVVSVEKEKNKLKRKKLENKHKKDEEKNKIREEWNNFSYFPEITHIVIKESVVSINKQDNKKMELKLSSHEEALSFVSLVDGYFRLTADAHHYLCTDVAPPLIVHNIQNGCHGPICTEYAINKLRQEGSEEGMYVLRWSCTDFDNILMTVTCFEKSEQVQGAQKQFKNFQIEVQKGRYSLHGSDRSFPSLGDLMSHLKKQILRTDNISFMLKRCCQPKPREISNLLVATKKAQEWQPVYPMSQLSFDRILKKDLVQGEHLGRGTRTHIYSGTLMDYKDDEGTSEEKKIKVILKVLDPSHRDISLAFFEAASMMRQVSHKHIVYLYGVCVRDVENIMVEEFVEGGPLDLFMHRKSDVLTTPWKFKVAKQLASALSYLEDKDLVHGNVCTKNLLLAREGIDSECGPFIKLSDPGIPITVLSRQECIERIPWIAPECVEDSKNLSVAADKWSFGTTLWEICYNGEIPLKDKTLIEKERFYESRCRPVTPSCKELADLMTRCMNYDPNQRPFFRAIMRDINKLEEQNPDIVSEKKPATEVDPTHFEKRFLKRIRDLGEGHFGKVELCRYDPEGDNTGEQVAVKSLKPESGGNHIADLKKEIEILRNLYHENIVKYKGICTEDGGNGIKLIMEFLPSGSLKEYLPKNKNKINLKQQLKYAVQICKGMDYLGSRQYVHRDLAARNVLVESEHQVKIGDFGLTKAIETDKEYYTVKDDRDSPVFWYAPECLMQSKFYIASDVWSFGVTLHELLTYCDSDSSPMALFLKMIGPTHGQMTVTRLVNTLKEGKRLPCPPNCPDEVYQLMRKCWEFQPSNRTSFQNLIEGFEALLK
# Chain of JAK3 (P52333 whole entry): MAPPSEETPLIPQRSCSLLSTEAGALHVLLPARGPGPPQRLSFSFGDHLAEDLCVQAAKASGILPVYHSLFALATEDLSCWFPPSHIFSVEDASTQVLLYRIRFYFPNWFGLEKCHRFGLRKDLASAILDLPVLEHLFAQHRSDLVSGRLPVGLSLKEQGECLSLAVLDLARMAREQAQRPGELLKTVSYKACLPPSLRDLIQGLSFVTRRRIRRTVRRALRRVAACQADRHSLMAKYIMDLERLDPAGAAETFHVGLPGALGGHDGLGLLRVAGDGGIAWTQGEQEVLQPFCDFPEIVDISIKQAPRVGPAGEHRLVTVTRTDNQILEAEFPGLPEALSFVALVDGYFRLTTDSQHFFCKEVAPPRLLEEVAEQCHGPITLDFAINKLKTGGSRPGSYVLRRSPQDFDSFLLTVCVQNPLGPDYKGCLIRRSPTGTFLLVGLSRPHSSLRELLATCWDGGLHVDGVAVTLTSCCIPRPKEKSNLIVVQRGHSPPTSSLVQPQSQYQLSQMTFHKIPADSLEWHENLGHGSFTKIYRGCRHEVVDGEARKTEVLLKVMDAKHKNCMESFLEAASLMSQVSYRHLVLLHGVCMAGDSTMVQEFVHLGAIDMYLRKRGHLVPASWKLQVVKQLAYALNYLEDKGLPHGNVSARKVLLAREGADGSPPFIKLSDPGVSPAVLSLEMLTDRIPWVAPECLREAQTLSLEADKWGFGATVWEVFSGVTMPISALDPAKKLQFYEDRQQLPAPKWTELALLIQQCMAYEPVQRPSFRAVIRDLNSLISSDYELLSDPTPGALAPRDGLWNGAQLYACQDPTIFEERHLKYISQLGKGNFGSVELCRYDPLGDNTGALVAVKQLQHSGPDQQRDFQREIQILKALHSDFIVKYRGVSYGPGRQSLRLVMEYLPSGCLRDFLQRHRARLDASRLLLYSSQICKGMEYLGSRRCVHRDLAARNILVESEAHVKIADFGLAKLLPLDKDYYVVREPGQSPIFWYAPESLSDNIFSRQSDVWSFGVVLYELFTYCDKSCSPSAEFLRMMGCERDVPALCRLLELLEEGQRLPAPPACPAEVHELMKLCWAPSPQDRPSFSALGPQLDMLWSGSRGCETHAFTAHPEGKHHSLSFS
# Chain of TYK2 (P29597 whole entry): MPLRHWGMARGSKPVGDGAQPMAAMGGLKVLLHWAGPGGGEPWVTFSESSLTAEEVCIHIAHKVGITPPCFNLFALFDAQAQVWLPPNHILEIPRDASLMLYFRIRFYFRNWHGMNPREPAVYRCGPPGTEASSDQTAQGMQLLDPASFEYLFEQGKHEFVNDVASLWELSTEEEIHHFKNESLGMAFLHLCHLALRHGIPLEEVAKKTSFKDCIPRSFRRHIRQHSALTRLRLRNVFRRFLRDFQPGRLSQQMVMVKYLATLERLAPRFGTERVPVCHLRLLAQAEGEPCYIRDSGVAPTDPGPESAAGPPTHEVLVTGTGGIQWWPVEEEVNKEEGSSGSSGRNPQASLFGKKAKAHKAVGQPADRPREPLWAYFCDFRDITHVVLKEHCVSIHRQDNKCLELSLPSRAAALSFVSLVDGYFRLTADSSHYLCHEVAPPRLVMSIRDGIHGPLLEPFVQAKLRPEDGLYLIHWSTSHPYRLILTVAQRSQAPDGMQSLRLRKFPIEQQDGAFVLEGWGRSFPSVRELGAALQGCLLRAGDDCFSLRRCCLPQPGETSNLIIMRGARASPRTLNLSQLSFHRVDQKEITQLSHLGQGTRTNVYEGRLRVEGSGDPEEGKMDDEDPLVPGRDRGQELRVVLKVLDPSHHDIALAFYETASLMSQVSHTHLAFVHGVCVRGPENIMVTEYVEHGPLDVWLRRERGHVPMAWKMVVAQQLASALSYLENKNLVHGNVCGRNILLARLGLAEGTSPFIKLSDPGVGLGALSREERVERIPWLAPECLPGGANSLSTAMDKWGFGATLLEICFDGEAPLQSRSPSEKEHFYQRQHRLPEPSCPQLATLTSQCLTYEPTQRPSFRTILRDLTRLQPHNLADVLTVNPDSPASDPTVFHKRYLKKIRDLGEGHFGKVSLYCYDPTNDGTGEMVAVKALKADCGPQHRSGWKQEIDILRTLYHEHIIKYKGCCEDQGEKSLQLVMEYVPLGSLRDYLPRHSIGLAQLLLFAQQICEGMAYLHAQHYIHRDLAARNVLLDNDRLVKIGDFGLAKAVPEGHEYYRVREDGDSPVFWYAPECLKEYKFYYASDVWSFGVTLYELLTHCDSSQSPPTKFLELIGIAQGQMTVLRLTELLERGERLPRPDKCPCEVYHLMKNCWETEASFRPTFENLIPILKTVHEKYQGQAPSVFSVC
# Chain of JAK2 (O60674 whole entry): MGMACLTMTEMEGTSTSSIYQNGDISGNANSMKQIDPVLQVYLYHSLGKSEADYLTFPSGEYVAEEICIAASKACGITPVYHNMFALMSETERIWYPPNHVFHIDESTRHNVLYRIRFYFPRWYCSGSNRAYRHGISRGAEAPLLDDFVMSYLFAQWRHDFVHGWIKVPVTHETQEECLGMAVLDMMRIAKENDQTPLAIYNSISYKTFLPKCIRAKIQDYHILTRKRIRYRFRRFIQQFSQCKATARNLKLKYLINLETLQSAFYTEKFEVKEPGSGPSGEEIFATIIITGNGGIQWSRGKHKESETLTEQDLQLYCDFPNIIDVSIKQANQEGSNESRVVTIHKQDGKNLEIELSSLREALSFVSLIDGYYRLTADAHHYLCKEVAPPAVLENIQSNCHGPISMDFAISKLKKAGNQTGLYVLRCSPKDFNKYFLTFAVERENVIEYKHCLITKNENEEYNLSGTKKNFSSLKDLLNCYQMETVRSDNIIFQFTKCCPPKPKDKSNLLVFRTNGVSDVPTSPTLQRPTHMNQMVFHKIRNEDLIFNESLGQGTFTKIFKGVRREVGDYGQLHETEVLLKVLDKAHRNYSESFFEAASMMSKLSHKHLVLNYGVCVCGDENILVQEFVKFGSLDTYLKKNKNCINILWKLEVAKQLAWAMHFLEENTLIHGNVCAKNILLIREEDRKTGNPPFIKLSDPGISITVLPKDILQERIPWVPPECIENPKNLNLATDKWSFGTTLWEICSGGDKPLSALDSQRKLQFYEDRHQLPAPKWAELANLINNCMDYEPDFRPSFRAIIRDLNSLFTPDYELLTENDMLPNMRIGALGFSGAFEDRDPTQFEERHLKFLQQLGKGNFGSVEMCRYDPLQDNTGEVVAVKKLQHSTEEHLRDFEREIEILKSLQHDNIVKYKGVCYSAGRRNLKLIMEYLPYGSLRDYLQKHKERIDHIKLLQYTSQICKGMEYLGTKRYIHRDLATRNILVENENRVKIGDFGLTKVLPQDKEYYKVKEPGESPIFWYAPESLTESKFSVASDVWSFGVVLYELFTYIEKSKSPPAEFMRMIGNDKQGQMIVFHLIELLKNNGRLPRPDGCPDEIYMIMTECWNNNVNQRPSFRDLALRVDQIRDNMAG
molecule,measurement,setting,value
Cc1cnc(Nc2ccc(OCCN3CCCC3)cc2)nc1Nc1cccc(S(=O)(=O)NC(C)(C)C)c1 [Fedratinib],portion excreted in feces as unchanged drug,[1],23%
same,portion excreted to GI tract in feces,[1],77%
same,IC50,"[2]; Homo sapiens, 72 h",904 nM
same,IC50,"[3]; Homo sapiens, 72 h",210 nM
"Cc1cnc(Nc2ccc(OCCOc3ccc(/N=N/c4ccc(C(=O)NCCC(=O)O)cc4)cc3C(=O)O)cc2)nc1Nc1cccc(S(=O)(=O)NC(C)(C)C)c1 [MMT3-72, (E)-2-(2-(4-((4-((3-(N-(tert-butyl)sulfamoyl)phenyl)amino)-5-methylpyrimidin-2-yl)amino)phenoxy)ethoxy)-5-((4-((2-carboxyethyl)carbamoyl)phenyl)diazenyl)benzoic acid]",IC50,[4],6820 nM
same,Cmax,"[5]; female, C57BL/6, mouse, GI content (stomach, small intestine and colon content), oral 10 mg/kg MMT3-72, read-out: Cmax in GI content (stomach, small intestine and colon content)",> 50000 ng/g
same,"detection in small intestine tissues, colon tissue or systemic circulation","[5]; oral 10 mg/kg MMT3-72, 0-24 hrs",not detected
same,IC50,[6],448 nM
same,IC50,[7],2980 nM
same,"detection in plasma, colon tissue and feces",[8],only detected in the feces with no detection in the plasma and the colon tissues
same,epithelial loss and immune cell infiltration in colon tissue (H&E),[9],reduced epithelium disruption and infiltration of immune cells in colon tissues
same,epithelial loss and immune cell infiltration in colon tissue (H&E),[9]; listed as MMT3972,reduced epithelial loss and decreased infiltration of immune cells
same,IC50,[10],199 nM
same,IC50,"[2]; Homo sapiens, 72 h",5590 nM
same,IC50,"[3]; Homo sapiens, 72 h",515 nM
same,improvement of DAI score or disease severity (in words),[11],did not improve DAI score or disease severity
same,improvement of DAI score versus DSS induced colitis,[11]; 5 mg/kg,5 fold
same,mice that developed moderate colitis,[11]; 5 mg/kg,10%
same,mice that developed severe colitis,[11]; 5 mg/kg,no mouse developed severe colitis
same,improvement of DAI score in DSS-induced colitis model,[11]; 10 mg/kg,10 fold
same,recovery of colon length from DSS-induced colitis,[11]; 10 mg/kg,recovered the colon length
same,mice that developed moderate colitis,[11]; 10 mg/kg,no mice
same,mice that developed severe colitis with gross bleeding,[11]; 10 mg/kg,no mice
"Cc1cnc(Nc2ccc(OCCO)cc2)nc1Nc1cccc(S(=O)(=O)NC(C)(C)C)c1 [MMT3-72-M2, N-(tert-butyl)-3-((2-((4-(2-hydroxyethoxy)phenyl)amino)-5-methylpyrimidin-4-yl)amino)benzenesulfonamide]",IC50,[4],701 nM
same,Cmax,"[5]; female, C57BL/6, mouse, colon tissue and small intestinal tissues, oral 10 mg/kg MMT3-72, read-out: Cmax in colon tissue and small intestinal tissues",> 1500 ng/g
same,Cmax,"[5]; female, C57BL/6, mouse, plasma, oral 10 mg/kg MMT3-72, read-out: Cmax in plasma",8 ng/mL
same,concentration at 24 h,"[5]; female, C57BL/6, mouse, small and large intestine tissues, oral 10 mg/kg MMT3-72, at 24 hrs, read-out: Cmin in small and large intestine tissues",88.5 ng/mL
same,concentration in colon content relative to small intestine content,[5]; oral 10 mg/kg MMT3-72,10 fold
same,time after which undetectable in plasma,[5]; oral 10 mg/kg MMT3-72,4 h
same,IC50,[6],16.3 nM
same,IC50,[7],55.2 nM
same,"detection in plasma, colon tissue and feces",[8],only detected in the colon tissues and the feces with low level in the plasma
same,IC50,[10],2 nM
same,IC50,"[2]; Homo sapiens, 72 h",2590 nM
same,IC50,"[3]; Homo sapiens, 72 h",332 nM
COCCOCc1cc(Nc2ncc(C)c(Nc3cccc(S(=O)(=O)NC(C)(C)C)c3)n2)ccc1OCCN1CCCC1 [MMT3-83],IC50,[2],2040 nM
same,IC50,[3],645 nM
N#CC[C@H](C1CCCC1)n1cc(-c2ncnc3[nH]ccc23)cn1 [Ruxolitinib],IC50,"[2]; Homo sapiens, 72 h",114 nM
same,IC50,"[3]; Homo sapiens, 72 h",~145 nM
"C[C@@H]1CCN(C(=O)CC#N)C[C@@H]1N(C)c1ncnc2[nH]ccc12 [Tofacitinib, reference compound]",improvement of DAI score or disease severity (in words),[11],did not improve DAI score or disease severity
same,improvement of DAI score (in words),[11]; 5 mg/kg,did not show any improvement of DAI score
same,mice that developed moderate colitis,[11]; 5 mg/kg,80%
same,mice that developed severe colitis,[11]; 5 mg/kg,40%
same,improvement of DAI score (in words),[11]; 10 mg/kg,showed improvement of DAI score
same,recovery of colon length from DSS-induced colitis,[11]; 10 mg/kg,recovered the colon length
same,mice that developed moderate colitis,[11]; 10 mg/kg,20%
same,mice that developed severe colitis with gross bleeding,[11]; 10 mg/kg,10%
CC[C@@H]1CN(C(=O)NCC(F)(F)F)C[C@@H]1c1cnc2cnc3[nH]ccc3n12 [Upadacitinib],IC50,"[2]; Homo sapiens, 72 h",1010 nM
same,IC50,"[3]; Homo sapiens, 72 h",69.6 nM
Deucravacitinib,IC50,[2],~347000 nM
same,IC50,[3],7380 nM
